From US20240218022A1, “ANTI-VISTA MACROCYCLIC PEPTIDES AND COMPOSITIONS” (BRISTOL-MYERS SQUIBB COMPANY, priority 2022, published 2024)
Read-outs that look alike come from different tables or passages of the source. One block for each molecule: values may come before it. Starred links: 1 amine or outer side, 2 acyl side, 3 side chain; linkers in the order of their positions; H or OH if unused. Positions of bridges follow the written chain, without caps; N, C: chain ends. Non-standard residues stand in square brackets, D forms with d. Residues, ends and D or L forms follow the SMILES beside them. Phe(3-Me) = Cc1cccc(C[C@H](N)C(=O)O)c1; γGlu = O=C(O)[C@H](CCC(=O)[*:2])N[*:1]; 2Nal = N[C@@H](Cc1ccc2ccccc2c1)C(=O)O; NMeE = CN[C@@H](CCC(=O)O)C(=O)O; Ahp(2) = CCCCC[C@H](N)C(=O)O; NMeNle = CCCC[C@H](NC)C(=O)O; Tle = CC(C)(C)[C@H](N)C(=O)O; NHexGly = CCCCCCNCC(=O)O; Nle = CCCC[C@H](N)C(=O)O; Aun = NCCCCCCCCCCC(=O)O; AEEA = NCCOCCOCC(=O)O

Molecular target: T1, mouse VISTA (mVISTA) (Mus musculus, UniProt Q9D659)
T1 construct: expressed in transfected cells; host or cells: Human embryonic kidney 293T cells
T1 sequence (Q9D659 33-308): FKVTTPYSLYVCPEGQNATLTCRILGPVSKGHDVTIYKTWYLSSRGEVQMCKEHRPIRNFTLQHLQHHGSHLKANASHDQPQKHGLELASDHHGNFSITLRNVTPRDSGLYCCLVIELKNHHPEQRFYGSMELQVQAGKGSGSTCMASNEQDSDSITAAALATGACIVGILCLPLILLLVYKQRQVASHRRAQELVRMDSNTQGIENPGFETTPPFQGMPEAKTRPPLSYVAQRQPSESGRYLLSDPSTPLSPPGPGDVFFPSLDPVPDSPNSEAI
Assay: Cell-Based Binding High-Content Assay For mVISTA (HC CBA mVISTA)
Conditions: read-out: HC CBA mVISTA IC50
Procedure, shortened: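 Read-out: Alexa 647–streptavidin signal imaged on fixed, Hoechst-stained mVISTA-293T cells, with IC50 taken from a four-parameter logistic curve. Compounds competed with 2 nM biotinylated peptide for 30 min at room temperature, tested under both no-wash and wash (1 h compound, media exchange, 1 h) formats.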

SMILES: CCCCCCN1CC(=O)N[C@@H](Cc2ccc(O)cc2)C(=O)N[C@@H](CCCC)C(=O)NCC(=O)N[C@@H](CCCNC(=N)N)C(=O)N[C@@H](CC(C)C)C(=O)N[C@@H](CCCCC)C(=O)N2CCC[C@H]2C(=O)N[C@@H](C(C)C)C(=O)N2CCC[C@H]2C(=O)N[C@H](C(=O)NCC(=O)O)CSCC(=O)N[C@@H](Cc2ccccc2)C(=O)N[C@@H](Cc2ccc(O)cc2)C(=O)N[C@@H](CC(=O)O)C1=O [Example 1099] ({CH2CO}-FYD[NHexGly]Y[Nle]GRL[Ahp(2)]PVPCG-OH; thioether N-14)
IC50 (293T cells expressing mouse VISTA, competition with biotinylated peptide (2 nM)): 21.6 nM

SMILES: CCCCCCN1CC(=O)N[C@@H](Cc2ccc(O)cc2)C(=O)N[C@@H](CCCC)C(=O)N[C@@H](CC(N)=O)C(=O)N[C@@H](CCCNC(=N)N)C(=O)N(C)[C@@H](CCCC)C(=O)N[C@@H](CCCCC)C(=O)N2CCC[C@H]2C(=O)N[C@@H](C(C)C)C(=O)N[C@@H](CC(=O)O)C(=O)N[C@H](C(=O)NCC(=O)O)CSCC(=O)N[C@@H](Cc2ccc3ccccc3c2)C(=O)N[C@@H](Cc2cccc(C)c2)C(=O)N[C@@H](CC(=O)O)C1=O [compound 1200] ({CH2CO}-[2Nal][Phe(3-Me)]D[NHexGly]Y[Nle]NR[NMeNle][Ahp(2)]PVDCG-OH; thioether N-14)
IC50: 44.8 nM

SMILES: CCCCCCN1CC(=O)N[C@@H](Cc2ccc(O)cc2)C(=O)N[C@@H](CCCC)C(=O)N[C@@H](CC(N)=O)C(=O)N[C@@H](CCCNC(=N)N)C(=O)N(C)[C@@H](CCCC)C(=O)N[C@@H](CCCCC)C(=O)N2CCC[C@H]2C(=O)N[C@@H](C(C)C)C(=O)N[C@@H](CC(=O)O)C(=O)N[C@H](C(=O)NCC(=O)O)CSCC(=O)N[C@@H](Cc2cccc(C)c2)C(=O)N[C@@H](Cc2c[nH]c3ccccc23)C(=O)N[C@@H](CC(=O)O)C1=O [compound 1442] ({CH2CO}-[Phe(3-Me)]WD[NHexGly]Y[Nle]NR[NMeNle][Ahp(2)]PVDCG-OH; thioether N-14)
IC50 (the 19th table, scaffold drawing 22): 27.7 nM

Results, then the molecule that gave them:

IC50 (cell-based binding high-content assay, mVISTA, the 15th table): 13.9 nM
SMILES: CCCCCCN1CC(=O)N[C@@H](Cc2ccc(O)cc2)C(=O)N[C@@H](CCCC)C(=O)N[C@@H](CC(N)=O)C(=O)N[C@@H](CCCNC(=N)N)C(=O)N(C)[C@@H](CCCC)C(=O)N[C@@H](CCCCC)C(=O)N2CCC[C@H]2C(=O)N[C@@H](C(C)C)C(=O)N[C@@H](CC(N)=O)C(=O)N[C@H](C(=O)NCC(=O)O)CSCC(=O)N[C@@H](Cc2ccc3ccccc3c2)C(=O)N[C@@H](Cc2c[nH]c3ccccc23)C(=O)N[C@@H](CC(=O)O)C1=O [compound 1249] ({CH2CO}-[2Nal]WD[NHexGly]Y[Nle]NR[NMeNle][Ahp(2)]PVNCG-OH; thioether N-14)

IC50 (cell-based binding high-content assay, mVISTA, the 16th table): 35.7 nM
SMILES: CCCCCCN1CC(=O)N[C@@H](Cc2ccc(O)cc2)C(=O)N[C@@H](CC(C)C)C(=O)NCC(=O)N[C@@H](CCCNC(=N)N)C(=O)N[C@@H](Cc2ccc(O)cc2)C(=O)N[C@@H](CCCCC)C(=O)N2CCC[C@H]2C(=O)N[C@@H](C(C)C)C(=O)N[C@@H](CO)C(=O)N[C@H](C(=O)NCC(N)=O)CSCC(=O)N[C@@H](Cc2ccc3ccccc3c2)C(=O)N[C@@H](Cc2ccc(O)cc2)C(=O)N[C@@H](CC(=O)O)C1=O [Ex 1297] ({CH2CO}-[2Nal]YD[NHexGly]YLGRY[Ahp(2)]PVSCG-NH2; thioether N-14)

IC50: 5.9 nM
SMILES: CCCCCCN1CC(=O)N[C@@H](Cc2ccc(O)cc2)C(=O)N[C@@H](CCCC)C(=O)N[C@@H](CC(N)=O)C(=O)N[C@@H](CCCNC(=N)N)C(=O)N(C)[C@@H](CCCC)C(=O)N[C@@H](CCCCC)C(=O)N2CCC[C@H]2C(=O)N[C@@H](C(C)C)C(=O)N[C@@H](CC(=O)O)C(=O)N[C@H](C(=O)NCC(=O)O)CSCC(=O)N[C@@H](Cc2ccccc2)C(=O)N[C@@H](Cc2c[nH]c3ccccc23)C(=O)N[C@@H](CC(=O)O)C1=O [Example 1379] ({CH2CO}-FWD[NHexGly]Y[Nle]NR[NMeNle][Ahp(2)]PVDCG-OH; thioether N-14)

IC50: 45.4 nM
SMILES: CCCCCCN1CC(=O)N[C@@H](Cc2ccc(O)cc2)C(=O)N[C@@H](CCCC)C(=O)N[C@@H](CC(N)=O)C(=O)N[C@@H](CCCNC(=N)N)C(=O)N(C)[C@@H](CCC(=O)O)C(=O)N[C@@H](CCCCC)C(=O)N2CCC[C@H]2C(=O)N[C@@H](C(C)(C)C)C(=O)N[C@@H](CO)C(=O)N[C@H](C(=O)NCCOCCOCC(=O)N[C@@H](CCC(=O)NCCOCCOCC(=O)NCCCCCCCCCCC(=O)O)C(=O)O)CSCC(=O)N[C@@H](Cc2ccccc2)C(=O)N[C@@H](Cc2c[nH]c3ccccc23)C(=O)N[C@@H](CC(=O)O)C1=O [compound 2248] ({CH2CO}-FWD[NHexGly]Y[Nle]NR[NMeE][Ahp(2)]P[Tle]SC[AEEA][γGlu][AEEA][Aun]-OH; thioether N-14)
